pEC50, pIC50: −log10 of the molar value. Calls of active or inactive are those of the source. The rule behind the calls is not given here.
Columns and labels:
LNCaP = experiment: Antiproliferative activity against human LNCaP cells incubated for 6 days by CellTiter-Glo assay; type: functional, cell-based
[1] = target: T1, Androgen receptor (Homo sapiens) (UniProt P10275); experiment: Potency index, ratio of galeterone DC50 to test compound DC50 for induction of androgen receptor degradation in human LNCaP cells; type: cell-based
T1 sequence (whole entry): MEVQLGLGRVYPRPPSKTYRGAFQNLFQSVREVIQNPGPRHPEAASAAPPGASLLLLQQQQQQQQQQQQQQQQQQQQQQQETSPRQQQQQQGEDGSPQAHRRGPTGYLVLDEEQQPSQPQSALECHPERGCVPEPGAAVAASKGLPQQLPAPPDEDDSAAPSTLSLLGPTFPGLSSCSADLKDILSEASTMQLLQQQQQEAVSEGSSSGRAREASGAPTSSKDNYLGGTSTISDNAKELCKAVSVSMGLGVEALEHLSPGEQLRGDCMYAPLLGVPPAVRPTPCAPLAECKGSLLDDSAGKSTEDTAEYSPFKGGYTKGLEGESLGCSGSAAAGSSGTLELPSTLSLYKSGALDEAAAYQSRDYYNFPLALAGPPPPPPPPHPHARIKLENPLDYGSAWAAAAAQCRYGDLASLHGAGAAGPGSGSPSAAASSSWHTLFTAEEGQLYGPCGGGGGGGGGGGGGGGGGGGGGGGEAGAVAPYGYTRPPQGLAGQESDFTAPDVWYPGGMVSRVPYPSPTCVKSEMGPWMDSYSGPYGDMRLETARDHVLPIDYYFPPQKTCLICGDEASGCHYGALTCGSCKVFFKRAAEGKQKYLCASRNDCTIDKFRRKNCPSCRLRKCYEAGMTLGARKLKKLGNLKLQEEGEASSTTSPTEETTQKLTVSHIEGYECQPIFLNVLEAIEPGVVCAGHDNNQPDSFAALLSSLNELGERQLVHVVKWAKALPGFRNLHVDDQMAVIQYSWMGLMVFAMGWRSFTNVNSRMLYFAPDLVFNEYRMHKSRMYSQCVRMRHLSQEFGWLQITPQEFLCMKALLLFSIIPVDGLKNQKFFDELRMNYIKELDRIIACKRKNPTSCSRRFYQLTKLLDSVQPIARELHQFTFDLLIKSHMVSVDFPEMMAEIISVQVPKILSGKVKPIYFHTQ

Androgen receptor = target: T2, Androgen receptor (Homo sapiens, UniProt P10275); experiment: Induction of androgen receptor degradation in human LNCaP cells incubated for 24 hrs by ELISA; type: cell-based
T2 sequence (P10275 whole entry): T1 sequence (whole entry)

[2] = target: Voltage-gated inwardly rectifying potassium channel KCNH2 (Homo sapiens, UniProt Q12809); experiment: Inhibition of human ERG by patch clamp assay; type: toxicity
[3] = target: Androgen receptor (Homo sapiens) (UniProt P10275); experiment: In vivo induction of androgen receptor in human LNCaP/AR cells xenografted in SCID mouse assessed as reduction in AR protein level at 10 mg/kg, po administered once daily for 28 days by ELISA; set-up: scale not given: the % may be the effect or the level left; settings: time 28.0 day
Mus musculus = experiment: In vivo induction of androgen receptor in human LNCaP/AR cells xenografted in SCID mouse assessed as reduction in PSA level at 10 to 30 mg/kg, po administered once daily for 28 days by ELISA; type: functional, organism-based; settings: dose 10-30 mg/kg, time 28.0 day
[4] = system: Androgen receptor (Homo sapiens), P10275 [F877L]; experiment: Antagonist activity at androgen receptor F876L mutant expressed in HEK293 cells assessed as reduction in DHT-induced transcriptional activation of androgen receptor incubated for 24 hrs by Steady-Glo assay relative to control; type: cell-based; set-up: scale not given: the % may be the effect or the level left; settings: filed as antagonist
[5] = target: T1, Androgen receptor (Homo sapiens); experiment: Induction of androgen receptor degradation in human LNCaP cells at 20 uM incubated for 24 hrs in presence of MG-132; type: cell-based
[6] = target: T1, Androgen receptor (Homo sapiens); experiment: Induction of androgen receptor degradation in human LNCaP cells at 20 uM incubated for 24 hrs; type: cell-based
LNCaP/AR = experiment: Antitumor activity against human LNCaP/AR cells xenografted in SCID male mouse assessed as tumor growth inhibition at 30 mg/kg, po administered once daily for 28 days and measured every 3 days; type: functional, organism-based; settings: time 28.0 day
[7] = target: T1, Androgen receptor (Homo sapiens); experiment: Induction of androgen receptor degradation in human LNCaP cells incubated for 24 hrs by Western blot analysis; type: cell-based; settings: dose 1-20 µM
LNCaP C4-2B = experiment: Antitumor activity against enzalutamide resistant human LNCaP C4-2B cells xenografted in BALB/c mouse assessed as tumor growth suppression at 10 mg/kg, po administered once daily for 28 days and measured every 3 days; type: functional, organism-based; settings: time 28.0 day
[8] = target: T1, Androgen receptor (Homo sapiens); experiment: Induction of androgen receptor degradation in human 22Rv1 cells incubated for 24 hrs by Western blot analysis; type: cell-based; settings: dose 1-20 µM
[9] = target: T1, Androgen receptor (Homo sapiens); experiment: Induction of androgen receptor degradation in human VCaP cells incubated for 24 hrs by Western blot analysis; type: cell-based; settings: dose 1-20 µM
[10] = target: T1, Androgen receptor (Homo sapiens); experiment: Induction of androgen receptor degradation in human LNCaP cells assessed as reduction in AR mRNA level incubated for 24 hrs by qPCR analysis; type: cell-based; settings: dose 1-20 µM
22Rv1 = experiment: Induction of androgen receptor splice variant 7 degradation in human 22Rv1 cells at 1 to 20 uM incubated for 24 hrs by Western blot analysis; type: cell-based; settings: dose 1-20 µM
[11] = target: Androgen receptor (Homo sapiens) (UniProt P10275); experiment: In vivo induction of androgen receptor in human LNCaP/AR cells xenografted in SCID mouse assessed as reduction in AR protein level at 30 mg/kg, po administered once daily for 28 days by ELISA; set-up: scale not given: the % may be the effect or the level left; settings: time 28.0 day

Sequence of Voltage-gated inwardly rectifying potassium channel KCNH2 (Q12809 whole entry): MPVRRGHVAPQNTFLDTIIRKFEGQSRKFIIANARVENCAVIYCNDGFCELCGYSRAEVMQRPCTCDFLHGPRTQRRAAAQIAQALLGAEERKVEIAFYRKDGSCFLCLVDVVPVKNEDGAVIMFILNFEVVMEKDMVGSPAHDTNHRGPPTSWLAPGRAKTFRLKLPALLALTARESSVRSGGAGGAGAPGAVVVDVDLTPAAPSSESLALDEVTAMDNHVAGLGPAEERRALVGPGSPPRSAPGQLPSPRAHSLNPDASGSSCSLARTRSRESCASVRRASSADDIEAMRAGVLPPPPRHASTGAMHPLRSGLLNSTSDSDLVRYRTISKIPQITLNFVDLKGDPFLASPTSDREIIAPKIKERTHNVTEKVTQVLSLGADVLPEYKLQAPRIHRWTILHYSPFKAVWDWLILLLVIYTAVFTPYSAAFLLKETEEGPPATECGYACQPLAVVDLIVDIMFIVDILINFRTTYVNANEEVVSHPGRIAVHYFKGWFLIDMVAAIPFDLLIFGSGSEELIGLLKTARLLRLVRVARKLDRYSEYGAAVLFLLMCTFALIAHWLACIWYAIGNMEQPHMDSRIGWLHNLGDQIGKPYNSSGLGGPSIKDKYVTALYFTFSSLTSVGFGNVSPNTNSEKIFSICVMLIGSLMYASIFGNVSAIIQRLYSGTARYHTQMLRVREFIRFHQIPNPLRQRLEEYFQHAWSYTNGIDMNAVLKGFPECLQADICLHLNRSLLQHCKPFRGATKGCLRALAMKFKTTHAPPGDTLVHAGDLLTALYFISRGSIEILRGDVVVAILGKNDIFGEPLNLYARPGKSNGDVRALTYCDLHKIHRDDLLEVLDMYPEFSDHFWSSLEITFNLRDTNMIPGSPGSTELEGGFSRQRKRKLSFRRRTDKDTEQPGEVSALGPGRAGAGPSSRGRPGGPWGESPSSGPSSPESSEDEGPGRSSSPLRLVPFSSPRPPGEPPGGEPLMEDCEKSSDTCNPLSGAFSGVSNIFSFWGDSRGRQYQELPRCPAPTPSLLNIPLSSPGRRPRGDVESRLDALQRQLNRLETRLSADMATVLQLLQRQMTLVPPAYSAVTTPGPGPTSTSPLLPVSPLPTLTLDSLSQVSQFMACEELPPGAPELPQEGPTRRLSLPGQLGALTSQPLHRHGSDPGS
Sequence of Androgen receptor (Homo sapiens), P10275 [F877L] (P10275 whole entry F877L): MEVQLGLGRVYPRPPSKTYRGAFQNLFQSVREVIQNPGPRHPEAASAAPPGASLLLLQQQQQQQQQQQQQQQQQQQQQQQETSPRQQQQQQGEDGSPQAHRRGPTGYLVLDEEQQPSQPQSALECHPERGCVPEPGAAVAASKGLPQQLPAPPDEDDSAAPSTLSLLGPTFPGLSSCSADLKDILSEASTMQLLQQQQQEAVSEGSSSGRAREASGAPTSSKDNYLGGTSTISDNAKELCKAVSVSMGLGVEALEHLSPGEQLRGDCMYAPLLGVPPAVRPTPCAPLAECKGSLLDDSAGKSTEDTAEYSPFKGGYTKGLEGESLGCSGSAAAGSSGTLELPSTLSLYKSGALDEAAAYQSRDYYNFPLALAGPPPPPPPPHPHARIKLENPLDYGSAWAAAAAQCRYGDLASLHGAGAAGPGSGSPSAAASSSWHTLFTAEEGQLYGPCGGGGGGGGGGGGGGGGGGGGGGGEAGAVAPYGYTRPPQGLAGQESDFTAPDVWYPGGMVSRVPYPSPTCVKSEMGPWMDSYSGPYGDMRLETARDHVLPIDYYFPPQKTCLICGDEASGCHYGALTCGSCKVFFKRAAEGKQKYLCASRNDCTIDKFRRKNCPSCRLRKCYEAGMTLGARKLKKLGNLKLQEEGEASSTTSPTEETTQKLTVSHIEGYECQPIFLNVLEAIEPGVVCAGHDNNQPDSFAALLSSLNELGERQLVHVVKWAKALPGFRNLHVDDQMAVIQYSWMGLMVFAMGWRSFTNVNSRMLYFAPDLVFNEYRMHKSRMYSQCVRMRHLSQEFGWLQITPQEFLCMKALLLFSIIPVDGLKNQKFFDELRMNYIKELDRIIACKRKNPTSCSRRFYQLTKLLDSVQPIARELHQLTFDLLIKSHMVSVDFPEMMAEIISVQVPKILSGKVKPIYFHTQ

SMILES: Cc1cn(C2=CCC3C4CC=C5C[C@@H](NC(=O)n6ccnc6)CC[C@]5(C)C4CC[C@]23C)cn1 (stereo not given in full)
- pIC50 (LNCaP): 5.18

SMILES: Cc1cn(C2=CCC3C4CC=C5C[C@@H](NC(=O)c6ccc([N+](=O)[O-])cc6)CC[C@]5(C)C4CC[C@]23C)cn1 (stereo not given in full)
- Ratio [1]: 2.5
- pEC50 (Androgen receptor): 5.59
- pIC50 [2]: < 4.40
- pIC50 (LNCaP): 6.23

SMILES: C[C@]12CC[C@H](NC(=O)c3ccnnc3)CC1=CCC1C2CC[C@]2(C)C(n3cnc(Br)c3)=CCC12 (stereo not given in full)
- pIC50 (LNCaP): 5.83

SMILES: CC(=O)c1cn(C2=CCC3C4CC=C5C[C@@H](NC(=O)c6ccnnc6)CC[C@]5(C)C4CC[C@]23C)cn1 (stereo not given in full)
- pIC50 (LNCaP): 5.86

SMILES: C[C@]12CC[C@H](NC(=O)c3ccnnc3)CC1=CCC1C2CC[C@]2(C)C(n3cnc(Cl)c3)=CCC12 (stereo not given in full)
- pIC50 [2]: 4.61
- pIC50 (LNCaP): 6.22

SMILES: COC(=O)c1cn(C2=CCC3C4CC=C5C[C@@H](NC(=O)c6ccnnc6)CC[C@]5(C)C4CC[C@]23C)cn1 (stereo not given in full)
- pIC50 (LNCaP): 5.71

SMILES: Cc1cn(C2=CCC3C4CC=C5C[C@@H](NC(=O)c6ccc(C#N)cc6)CC[C@]5(C)C4CC[C@]23C)cn1 (stereo not given in full)
- Ratio [1]: 2.5
- pEC50 (Androgen receptor): 5.81
- pIC50 [2]: < 4.40
- pIC50 (LNCaP): 6.19

SMILES: COc1cn(C2=CCC3C4CC=C5C[C@@H](NC(=O)c6ccncc6)CC[C@]5(C)C4CC[C@]23C)cn1 (stereo not given in full)
- pIC50 [2]: 5.39
- pIC50 (LNCaP): 6.36

SMILES: C[C@]12CC[C@H](NC(=O)c3ccnnc3)CC1=CCC1C2CC[C@]2(C)C(n3cnc(F)c3)=CCC12 (stereo not given in full)
- pIC50 (LNCaP): 5.63

SMILES: Cc1cn(C2=CCC3C4CC=C5C[C@@H](NC(=O)c6ccncc6F)CC[C@]5(C)C4CC[C@]23C)cn1 (stereo not given in full)
- Ratio [1]: 2.5
- pEC50 (Androgen receptor): 5.24
- pIC50 [2]: < 4.40
- pIC50 (LNCaP): 6.12

SMILES: COc1ccc(C(=O)N[C@H]2CC[C@@]3(C)C(=CCC4C3CC[C@]3(C)C(n5cnc(C)c5)=CCC43)C2)cc1 (stereo not given in full)
- pIC50 (LNCaP): < 5.00

SMILES: C[C@]12CC[C@H](NC(=O)c3ccnnc3)CC1=CCC1C2CC[C@]2(C)C(n3cnc([N+](=O)[O-])c3)=CCC12 (stereo not given in full)
- Ratio [1]: 2.5
- pEC50 (Androgen receptor): 5.48
- pIC50 [2]: < 4.40
- pIC50 (LNCaP): 6.38

SMILES: Cc1cn(C2=CCC3C4CC=C5C[C@@H](NS(=O)(=O)c6cccnc6)CC[C@]5(C)C4CC[C@]23C)cn1 (stereo not given in full)
- pIC50 (LNCaP): 5.68

SMILES: Cc1cn(C2=CCC3C4CC=C5C[C@@H](NC(=O)c6ccc(S(C)(=O)=O)cc6)CC[C@]5(C)C4CC[C@]23C)cn1 (stereo not given in full)
- Ratio [1]: 2.5
- pEC50 (Androgen receptor): 5.86
- pIC50 [2]: < 4.40
- pIC50 (LNCaP): 6.28

SMILES: Cc1cn(C2=CCC3C4CC=C5C[C@@H](NC(=O)c6ncccn6)CC[C@]5(C)C4CC[C@]23C)cn1 (stereo not given in full)
- pIC50 (LNCaP): 5.62

SMILES: CC(C)c1cn(C2=CCC3C4CC=C5C[C@@H](NC(=O)c6ccncc6)CC[C@]5(C)C4CC[C@]23C)cn1 (stereo not given in full)
- Ratio [1]: 2.5
- pEC50 (Androgen receptor): 5.32
- pIC50 [2]: 4.82
- pIC50 (LNCaP): 6.13

SMILES: Cc1cn(C2=CCC3C4CC=C5C[C@@H](NS(=O)(=O)c6ccc([N+](=O)[O-])cc6)CC[C@]5(C)C4CC[C@]23C)cn1 (stereo not given in full)
- pIC50 (LNCaP): 5.46

SMILES: CC(O)c1cn(C2=CCC3C4CC=C5C[C@@H](NC(=O)c6ccnnc6)CC[C@]5(C)C4CC[C@]23C)cn1 (stereo not given in full)
- pIC50 (LNCaP): 5.74

SMILES: Cc1cn(C2=CCC3C4CC=C5C[C@@H](NC(=O)c6ccncn6)CC[C@]5(C)C4CC[C@]23C)cn1 (stereo not given in full)
- pIC50 (LNCaP): 5.90

SMILES: Cc1cn(C2=CCC3C4CC=C5C[C@@H](NS(=O)(=O)c6ccc(C#N)cc6)CC[C@]5(C)C4CC[C@]23C)cn1 (stereo not given in full)
- pIC50 (LNCaP): 5.44

SMILES: C[C@]12CC[C@H](NC(=O)c3ccnnc3)CC1=CCC1C2CC[C@]2(C)C(n3cnc(C(F)(F)F)c3)=CCC12 (stereo not given in full)
- pIC50 (LNCaP): 6.09

SMILES: CC(C)c1cn(C2=CCC3C4CC=C5C[C@@H](NC(=O)c6ccnnc6)CC[C@]5(C)C4CC[C@]23C)cn1 (stereo not given in full)
- pIC50 [2]: < 4.40
- pIC50 (LNCaP): 6.02

SMILES: CCc1cn(C2=CCC3C4CC=C5C[C@@H](NC(=O)c6ccnnc6)CC[C@]5(C)C4CC[C@]23C)cn1 (stereo not given in full)
- pIC50 [2]: 5.18
- pIC50 (LNCaP): 6.37

SMILES: Cc1cn(C2=CCC3C4CC=C5C[C@@H](NC(=O)c6ccc(F)cc6)CC[C@]5(C)C4CC[C@]23C)cn1 (stereo not given in full)
- Activity [3]: 40%
- Activity (Mus musculus): Active
- Activity [4]: 68%
- Activity [5]: inactive
- Activity [6]: Active
- Activity (LNCaP/AR): Active
- Activity [7]: Dose-Dependent Effect
- Activity (LNCaP C4-2B): inactive
- Activity [8]: Dose-Dependent Effect
- Activity [9]: Dose-Dependent Effect
- Activity [10]: Dose-Dependent Effect
- Activity (22Rv1): Active
- Activity [11]: 52%

SMILES: CC(C)(O)c1cn(C2=CCC3C4CC=C5C[C@@H](NC(=O)c6ccnnc6)CC[C@]5(C)C4CC[C@]23C)cn1 (stereo not given in full)
- pIC50 (LNCaP): 5.33

SMILES: C[C@]12CC[C@H](NC(=O)c3ccnnc3)CC1=CCC1C2CC[C@]2(C)C(n3cnc(C#N)c3)=CCC12 (stereo not given in full)
- pIC50 [2]: 5.54
- pIC50 (LNCaP): 6.33

SMILES: COc1cn(C2=CCC3C4CC=C5C[C@@H](NC(=O)c6ccnnc6)CC[C@]5(C)C4CC[C@]23C)cn1 (stereo not given in full)
- Ratio [1]: 2.5
- pEC50 (Androgen receptor): 5.41
- pIC50 [2]: 3.07
- pIC50 (LNCaP): 6.32

SMILES: CC(C)(C)c1cn(C2=CCC3C4CC=C5C[C@@H](NC(=O)c6ccnnc6)CC[C@]5(C)C4CC[C@]23C)cn1 (stereo not given in full)
- pIC50 (LNCaP): 5.95

SMILES: CCc1cn(C2=CCC3C4CC=C5C[C@@H](NC(=O)c6ccncc6)CC[C@]5(C)C4CC[C@]23C)cn1 (stereo not given in full)
- Ratio [1]: 2.5
- pEC50 (Androgen receptor): 5.49
- pIC50 [2]: 5.45
- pIC50 (LNCaP): 6.45

Reference: ChEMBL document CHEMBL5331145, “Discovery of a Novel Bifunctional Steroid Analog, YXG-158, as an Androgen Receptor Degrader and CYP17A1 Inhibitor for the Treatment of Enzalutamide-Resistant Prostate Cancer” (J Med Chem, 2023)
